These results are taken from US4443436A, “C-20-Modified macrolide derivatives of the macrolide antibiotics tylosin, desmycosin, macrocin, and lactenocin” (Eli Lilly and Company, priority 1982, dated 1984).

The subject of assay [1] is Pasteurella multocida 17E. The assay can be described thus: MIC, broth-dilution microtiter test, Pasteurella multocida 17E. The assay is classed as cell-based. An excerpt: (§1) The MIC's in Table X were obtained using conventional broth-dilution microtiter tests.
Assay [2] relates to Staphylococcus aureus V41. Briefly: MIC, standard agar-dilution assay, Staphylococcus aureus V41. The assay is classed as cell-based. Particulars: Staphylococcus aureus, V41.
The test system of assay [3] is Streptococcus pneumoniae Park I. Briefly: microbe, parasite or virus in culture. The assay is classed as cell-based. Particulars: Streptococcus pneumoniae.
For assay [4], the system named is Staphylococcus aureus X1.1. Briefly: MIC, standard agar-dilution assay, Staphylococcus aureus X1.1. The assay is classed as cell-based. Particulars: Staphylococcus aureus, X1.1.
Assay [5] deals with Streptococcus pyogenes C203. Briefly: MIC, standard agar-dilution assay, Streptococcus pyogenes C203. The assay is classed as cell-based. Particulars: Streptococcus pyogenes, C203.
The test system of assay [6] is Staphylococcus epidermidis EPI1. Briefly: MIC, standard agar-dilution assay, Staphylococcus epidermidis EPI1. The assay is classed as cell-based. To be noted: Staphylococcus epidermidis, EPI1.
The test system of another assay is Staphylococcus aureus. Briefly: MIC, broth-dilution microtiter test, Staphylococcus aureus. The assay is classed as cell-based.
Description: as §1

For a further assay, the system named is Streptococcus Group 9960. The assay can be described thus: MIC, standard agar-dilution assay, Streptococcus Group 9960. The assay is classed as cell-based. To be noted: GROUP9960; Streptococcus Group 9960; agar dilution; read-out: MIC. (In general: In agar dilution the substance is mixed into plates at graded concentrations.)
In a further assay the test system is Mycoplasma gallisepticum. Briefly: MIC, broth-dilution microtiter test, Mycoplasma gallisepticum. The assay is classed as cell-based. Particulars: Mycoplasmoides gallisepticum.
Description: as §1

The subject of another assay is Mycoplasma hyorhinis. The assay can be described thus: MIC, broth-dilution microtiter test, Mycoplasma hyorhinis. The assay is classed as cell-based. Particulars: Mycoplasma hyorhinis; broth-dilution microtiter; read-out: MIC.
Description: as §1

For assay [7], the system named is Staphylococcus epidermidis EPI2. Briefly: MIC, standard agar-dilution assay, Staphylococcus epidermidis EPI2. The assay is classed as cell-based. Particulars: Staphylococcus epidermidis, EPI2.
The test system of assay [8] is Staphylococcus aureus S13E. Briefly: MIC, standard agar-dilution assay, Staphylococcus aureus S13E. The assay is classed as cell-based. To be noted: Staphylococcus aureus, S13E.
Assay [9] relates to Pasteurella multocida 60A. The assay can be described thus: MIC, broth-dilution microtiter test, Pasteurella multocida 60A. The assay is classed as cell-based. Particulars: Pasteurella multocida 60A; avian isolate; broth-dilution microtiter; read-out: MIC.
Description: as §1

Assay [10] deals with Haemophilus influenzae Holt. Briefly: MIC, standard agar-dilution assay, Haemophilus influenzae Holt. The assay is classed as cell-based.
The next assay relates to Streptococcus bovis 80. The assay can be described thus: MIC, broth-dilution microtiter test, Streptococcus bovis 80. The assay is classed as cell-based. Particulars: Streptococcus equinus.
Description: as §1

Assay [11] relates to Haemophilus influenzae R252. Briefly: MIC, standard agar-dilution assay, Haemophilus influenzae R252. The assay is classed as cell-based. To be noted: Haemophilus influenzae R252; ampicillin-resistant strain; read-out: MIC.
For assay [12], the system named is Pasteurella hemolytica 22C. The assay can be described thus: MIC, broth-dilution microtiter test, Pasteurella hemolytica 22C. The assay is classed as cell-based. Particulars: Pasteurella hemolytica 22C; broth-dilution microtiter; read-out: MIC.
Description: as §1

The subject of a further assay is Mycoplasma synoviae. The assay can be described thus: MIC, broth-dilution microtiter test, Mycoplasma synoviae. The assay is classed as cell-based. Particulars: Mycoplasmopsis synoviae.
Description: as §1

The test system of assay [13] is Streptococcus Group D X66. The assay can be described thus: MIC, standard agar-dilution assay, Streptococcus Group D X66. The assay is classed as cell-based.
Assay [14] deals with Staphylococcus aureus X400. Briefly: MIC, standard agar-dilution assay, Staphylococcus aureus X400. The assay is classed as cell-based. To be noted: Staphylococcus aureus, X400.
The subject of assay [15] is Streptococcus pyogenes C203. Briefly: In vivo protection of mice experimentally infected with S. pyogenes C203. Particulars: Streptococcus pyogenes, mice, doses given 1 and 4 hours post-infection. As for the experimental part:
The C-20 modified derivatives of this invention have shown in vivo antimicrobial activity against experimentally-induced infections in laboratory animals. When two doses of test compound were administered to mice experimentally infected with S. pyogenes C203, the activity observed was measured as an ED50 value [effective dose in mg/kg to protect 50% of the test animals: see Warren Wick, et al., J. Bacteriol. 81, 233-235 (1961)].

The mark [16] stands for this setting: Pasteurella multocida 17E, bovine isolate, broth-dilution microtiter, read-out: MIC.
[17] abbreviates: Streptococcus bovis 80, broth-dilution microtiter, read-out: MIC.
The mark [18] stands for this setting: Mycoplasma synoviae, broth-dilution microtiter, read-out: MIC.

Structures are written as SMILES. In brackets after ≈: the same amount, converted by molar mass. Where two headings read alike, the source gives them in different places.

`CCC1OC(=O)CC(O)C(C)C(OC2OC(C)C(OC3CC(C)(O)C(O)C(C)O3)C(N(C)C)C2O)C(CCOC(=O)COc2ccccc2)CC(C)C(=O)C=CC(C)=CC1COC1OC(C)C(O)C(OC)C1OC` (stereo not shown) [Compound 11, 20-DH-20-O-(Phenoxyacetyl)tylosin]: the MIC in [1] (setting [16]) was > 50 µg/mL; in assay [2], 0.5 µg/mL (≈ 0.475 µM); in [3] it was 0.5 µg/mL (≈ 0.475 µM); in assay [4] it was 0.5 µg/mL (≈ 0.475 µM); in [5], 0.5 µg/mL (≈ 0.475 µM); in assay [6] it was 0.5 µg/mL (≈ 0.475 µM). Further, the MIC was 1.56 µg/mL (≈ 1.48 µM) in the assay on Staphylococcus aureus (broth-dilution microtiter, read-out: MIC); 8 µg/mL (≈ 7.6 µM) in the assay on Streptococcus Group 9960; 1.56 µg/mL (≈ 1.48 µM) with Mycoplasma gallisepticum (Mycoplasma gallisepticum, broth-dilution microtiter, read-out: MIC); > 50 µg/mL in the assay with Mycoplasma hyorhinis; 0.5 µg/mL (≈ 0.475 µM) in assay [7]; 0.5 µg/mL (≈ 0.475 µM) in assay [8]. Moreover, the MIC in assay [9] was > 50 µg/mL; in assay [10] (Haemophilus influenzae) it was > 128 µg/mL; in the assay on Streptococcus bovis 80 (setting [17]), 3.12 µg/mL (≈ 2.97 µM); in [11], > 128 µg/mL; in assay [12], > 50 µg/mL; in the assay on Mycoplasma synoviae (setting [18]), 3.12 µg/mL (≈ 2.97 µM). For the same molecule, the MIC was 8 µg/mL (≈ 7.6 µM) in [13] and 1 µg/mL (≈ 0.95 µM) in assay [14].

As to `CCOC(=O)NN(CCC1CC(C)C(=O)C=CC(C)=CC(COC2OC(C)C(O)C(OC)C2OC)C(CC)OC(=O)CC(O)C(C)C1OC1OC(C)C(OC2CC(C)(O)C(O)C(C)O2)C(N(C)C)C1O)C(=O)OCC` (stereo not shown) [Compound 9, 20-DH-DO-20-[N-(Ethoxycarbonyl)-N-(ethoxycarbonylamino)]aminotylosin], the MIC was > 50 µg/mL in assay [1] (setting [16]); 2 µg/mL (≈ 1.86 µM) in assay [2]; 2 µg/mL (≈ 1.86 µM) in [3]; 2 µg/mL (≈ 1.86 µM) in assay [4]; 16 µg/mL (≈ 14.9 µM) in assay [5]; 4 µg/mL (≈ 3.72 µM) in [6]. The MIC in the assay with Staphylococcus aureus is 6.25 µg/mL (≈ 5.81 µM); with Streptococcus Group 9960 it was > 128 µg/mL; against Mycoplasma gallisepticum it was 1.56 µg/mL (≈ 1.45 µM); in the assay with Mycoplasma hyorhinis, > 50 µg/mL; in assay [7], 2 µg/mL (≈ 1.86 µM); in assay [8] it was 2 µg/mL (≈ 1.86 µM). Besides, the MIC is > 50 µg/mL in [9]; > 128 µg/mL in [10] (Haemophilus influenzae Holt, ampicillin-sensitive strain, read-out: MIC); > 50 µg/mL in the assay on Streptococcus bovis 80 (setting [17]); > 128 µg/mL in assay [11]; > 50 µg/mL in assay [12]; 25 µg/mL (≈ 23.2 µM) in the assay on Mycoplasma synoviae (setting [18]). For the same molecule, the MIC in assay [13] was > 128 µg/mL; in assay [14] it was 8 µg/mL (≈ 7.43 µM).

Broadly, the ED50 is the dose at which the effect has come halfway, by size or by number of responders. `CCC1OC(=O)CC(O)C(C)C(OC2OC(C)C(OC3CC(C)(O)C(O)C(C)O3)C(N(C)C)C2O)C(CCN2C(=O)c3ccccc3C2=O)CC(C)C(=O)C=CC(C)=CC1COC1OC(C)C(O)C(OC)C1OC` (stereo not shown) [Compound 1, 20-DH-DO-20-N-Phthalimidotylosin]: the MIC in [1] (Pasteurella multocida, 17E) was > 50 µg/mL; in assay [2], 1 µg/mL (≈ 0.955 µM); in assay [3] it was 32 µg/mL (≈ 30.6 µM); in assay [4], 1 µg/mL (≈ 0.955 µM); in [5], 2 µg/mL (≈ 1.91 µM); in assay [6] it was 1 µg/mL (≈ 0.955 µM). In addition, the MIC in the assay with Staphylococcus aureus is 6.25 µg/mL (≈ 5.97 µM); in the assay with Streptococcus Group 9960, 128 µg/mL (≈ 122 µM); with Mycoplasma gallisepticum it was 3.12 µg/mL (≈ 2.98 µM); in the assay with Mycoplasma hyorhinis it was > 50 µg/mL; in assay [7] it was 1 µg/mL (≈ 0.955 µM); in assay [8], 1 µg/mL (≈ 0.955 µM). In addition, the MIC in assay [9] is > 50 µg/mL; in [10] (Haemophilus influenzae), > 128 µg/mL; against Streptococcus bovis 80 (80) it was 50 µg/mL (≈ 47.7 µM); in [11], > 128 µg/mL; in [12], > 50 µg/mL; with Mycoplasma synoviae, 6.25 µg/mL (≈ 5.97 µM). The molecule also displayed an MIC in assay [14] of 2 µg/mL (≈ 1.91 µM). Further, the ED50 was > 6.3 mg/kg in assay [15] (C203, sc, subcutaneous, read-out: ED50, Subcutaneous) and 71 mg/kg in assay [15] (C203, oral, read-out: ED50, Oral).
